For one data set, the system named is MDA-MB-231. The experiment in a line: Antimigratory activity against human MDA-MB-231 cells. Format: functional, cell-based.
The nature of data set [1]: Induction of sodium-22 influx in human TE-671 cells. It is filed as functional, cell-based.
The species entered for data set [2] is Rattus norvegicus. The experiment in a line: Protective index, ratio of TD50 for rat to ED50 for anticonvulsant activity in rat. It is filed as functional.
For data set [3], the species on record is Rattus norvegicus. In words: Anticonvulsant activity in rat maximal electroshock seizure model. It is filed as functional.
Data set [4] in a line: Toxicity in rat. As to conditions: in vivo.
Data set [5] is described as follows: Selectivity index, ratio of CC50 for human HeLa cells to IC50 for Coxsackievirus B3 isolate 97-927. It is filed as toxicity. As to conditions: read-out: Ratio CC50/IC50.
A short description of data set [6]: Selectivity index, ratio of CC50 for human HeLa cells to IC50 for Human rhinovirus 2. Format: toxicity. Particulars: read-out: Ratio CC50/IC50.
Another data set concerns Staphylococcus aureus. In words: Antibacterial activity against Staphylococcus aureus assessed as zone of inhibition at 50 ug/ml by agar disc diffusion method. As to conditions: read-out: IZ. It is filed as functional.
The subject of a further data set is Escherichia coli. In words: Antibacterial activity against Escherichia coli assessed as zone of inhibition at 50 ug/ml by agar disc diffusion method. It is filed as functional. As to conditions: read-out: IZ.
For data set [7], the target named is T1, Muscarinic acetylcholine receptor M1 (Rattus norvegicus, UniProt P08482).
T1 sequence (P08482 whole entry): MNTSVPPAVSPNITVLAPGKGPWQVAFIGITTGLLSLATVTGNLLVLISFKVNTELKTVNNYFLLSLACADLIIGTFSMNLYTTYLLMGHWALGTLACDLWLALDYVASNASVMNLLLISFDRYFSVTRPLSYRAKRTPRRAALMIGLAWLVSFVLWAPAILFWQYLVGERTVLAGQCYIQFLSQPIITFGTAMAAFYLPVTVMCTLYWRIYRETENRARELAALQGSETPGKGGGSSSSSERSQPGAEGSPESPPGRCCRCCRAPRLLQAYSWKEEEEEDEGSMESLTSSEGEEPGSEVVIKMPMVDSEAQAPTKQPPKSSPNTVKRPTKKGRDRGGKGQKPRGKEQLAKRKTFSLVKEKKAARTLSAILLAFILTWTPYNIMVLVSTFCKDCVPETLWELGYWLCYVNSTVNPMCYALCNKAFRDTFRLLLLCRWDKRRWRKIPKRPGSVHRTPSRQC
In words: Agonist activity at rat M1 muscarinic receptor.

Data set [8] deals with T2, Muscarinic acetylcholine receptor M2 (Rattus norvegicus, UniProt P10980).
T2 sequence (P10980 whole entry): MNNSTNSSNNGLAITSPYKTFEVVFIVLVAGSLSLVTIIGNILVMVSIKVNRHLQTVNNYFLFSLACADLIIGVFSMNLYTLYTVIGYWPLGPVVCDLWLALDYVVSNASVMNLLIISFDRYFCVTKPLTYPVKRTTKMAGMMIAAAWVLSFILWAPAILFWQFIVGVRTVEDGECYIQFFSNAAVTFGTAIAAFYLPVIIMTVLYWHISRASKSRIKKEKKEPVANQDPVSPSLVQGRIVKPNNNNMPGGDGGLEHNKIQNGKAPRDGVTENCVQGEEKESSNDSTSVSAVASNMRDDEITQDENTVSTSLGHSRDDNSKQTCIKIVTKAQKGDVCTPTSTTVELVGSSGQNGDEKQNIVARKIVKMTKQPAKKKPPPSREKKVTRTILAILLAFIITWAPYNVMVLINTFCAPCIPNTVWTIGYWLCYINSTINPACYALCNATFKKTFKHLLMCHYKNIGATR
In words: Agonist activity at rat M2 muscarinic receptor.

The next data set has as its system Coxsackievirus B3. In words: Antiviral activity against Coxsackievirus B3. Format: functional, organism-based. As to conditions: Enterovirus B.
In data set [9] the test system is Human immunodeficiency virus 1. In words: Antiviral activity against HIV-1 assessed as reduction in multinucleated cells production at 25 ug/ml. Format: functional. Further details: scale not given: the % may be the effect or the level left. As to conditions: dose 25 µg/ml.
The species named for another data set is Mus musculus. In words: Antithrombotic activity in Swiss mouse model of collagen and adrenaline-induced thrombosis assessed as increase in bleeding time. Format: functional.

pEC50, pIC50: −log10 of the molar value. Converted amounts (≈) assume the structure as drawn.

In the data set with MDA-MB-231, `CCc1cc(-c2oncc2-c2ccc(OC)cc2)c(O)cc1OC` gave a pIC50 of 6.82.
`Cc1cc(C2CC3CCC2N3)on1` (stereo not given): the pEC50 in data set [1] was 5.59.
Consider `Cc1cc(NC2=CC(=O)C(C(=O)OC(C)(C)C)C(C)C2)no1` (stereo not given), for which the Ratio in the data set filed under Rattus norvegicus [2] is given as over 49.6.
In turn, `Cc1cc(C(=O)Nc2c(C)cccc2C)no1` registered an ED50 in the data set listed under Rattus norvegicus [3] of 5.5 mg/kg. This compound registered a TD50 in [4] of over 500 mg/kg.
For the compound `Clc1ccc([C@H]2CC3CCC2N3)cn1` (stereo not given in full), the pEC50 in data set [1] was 6.28.
For `Cc1cc(CCCOc2ccc(-c3ccccc3C)cc2)on1`, the selectivity ratio in [5] was 2.6; in [6], 57.5.
`CCOC(=O)C1C(c2c(OCc3ccccc3)c(Br)cc3c(Cl)c(Cl)c(=O)oc23)=NOC1c1ccc(C(F)(F)F)cc1` (stereo not given): the zone of inhibition at 50 µg/mL worked out at 24 mm in the data set with Staphylococcus aureus and 20 mm in the data set on Escherichia coli.
Take `CCc1cc(-c2oncc2-c2ccc(Br)cc2)c(O)cc1OC`: the pIC50 with MDA-MB-231 is 7.30.
Consider `Cc1cc(CCCOc2ccc(-c3cccc(F)c3)cc2)on1`, for which the results for the selectivity ratio in data set [5] and in data set [6] were 2.9 and 230, respectively.
Compound `Cc1cc(NC(=O)c2c(C)cccc2C)on1` came in with an ED50 in the data set filed under Rattus norvegicus [3] of 8.9 mg/kg. Besides, in data set [4], the TD50 was over 500 mg/kg.
As for `C#CCOc1noc2c1CNCCC2C` (stereo not given), the figures for the pEC50 in [7] and in data set [8] were 5.89 and under 4.29, respectively.
As to `Cc1cc(CCCOc2ccc(-c3ccc(F)cc3)cc2)on1`, the values for the selectivity ratio in data set [5] and in data set [6] were over 37.3 and over 5560, respectively.
In the case of `Cc1cn(Cc2cc([C@@H](Cc3ccccc3)NC(=O)OC(C)(C)C)no2)c(=O)n(C(=O)c2ccccc2)c1=O`, the EC50 in the data set with Coxsackievirus B3 was found to be 10.6 µg/mL (≈ 20 µM).
For `O=C(CBr)c1cc(-c2ccccc2)no1`, the Activity in data set [9] amounted to 95%.
As to `N#Cc1ccc(CN(Cc2cc(-c3ccccc3Cl)on2)C(CCCNC(=N)N)C(N)=O)cc1` (stereo not given), the Activity in the data set filed under Mus musculus is on record as 87.5%.
Turning to `O=C(N[C@H](CO)[C@H](O)c1ccc([N+](=O)[O-])cc1)C(Cl)Cl` [CHLORAMPHENICOL], the zone of inhibition at 50 µg/mL in the data set on Staphylococcus aureus came to 23 mm; with Escherichia coli, 21 mm.
In turn, `NC(=O)c1ncn([C@@H]2O[C@H](CO)[C@@H](O)[C@H]2O)n1` [RIBAVIRIN] came in with an EC50 with Coxsackievirus B3 of 92.5 µg/mL (≈ 379 µM).

These data come from ChEMBL document CHEMBL5260809, “Isoxazole ring as a useful scaffold in a search for new therapeutic agents” (Eur J Med Chem, 2017).
